Measurements published in the NIST ThermoML archive (doi:10.1021/je100803e).

Key:
[1] = refractive index (Na D-line) (dimensionless); xn = mol fraction of the nth substance listed; conditions: 298.15 K, 101 kPa, Liquid, Standard Abbe refractometry
[2] = xn = mol fraction of the nth substance listed; conditions: 298.15 K, 101 kPa, Liquid; for viscosity: Capillary tube (Ostwald / Ubbelohde) method
[3] = refractive index (Na D-line) (dimensionless); conditions: 298.15 K; 101.33 kPa; Liquid; Standard Abbe refractometry
[4] = for mass density / viscosity: 298.15 K, 101.3 kPa; for mass density / viscosity / vapor or sublimation pressure: Liquid; for viscosity: Capillary tube (Ostwald / Ubbelohde) method; for vapor or sublimation pressure: Ebulliometric method (Recirculating still); for Normal melting temperature: Crystal

CC1COC(=O)O1 (centres undefined) [4-methyl-1,3-dioxolan-2-one] + CC(O)CO
Conditions	mass density, [2] [kg/m3]	refractive index, [1]	viscosity, [2] [mPa·s]
x2 = 0	1199.4	1.4198	2.39
x2 = 0.01	–	–	2.534
x2 = 0.05	1190.9	1.4199	2.436
x2 = 0.1	1182.4	1.4199	–
x2 = 0.2	1166.4	1.4207	2.921
x2 = 0.3	1150.2	1.4213	3.55
x2 = 0.4	1134.2	1.4223	4.758
x2 = 0.5	1117.9	1.4235	6.071
x2 = 0.6	1101.6	1.4249	8.461
x2 = 0.7	1085.1	1.4264	11.82
x2 = 0.8	1068	1.4278	17.38
x2 = 0.9	1050.6	1.4294	27.54
x2 = 0.9499	1041.4	1.4305	35.66

O=C1CCCO1 [γ-butyrolactone] + O
Conditions	mass density, [2] [kg/m3]	refractive index, [1]	viscosity, [2] [mPa·s]
x2 = 0	1124.5	1.435	1.654
x2 = 0.05	1123	1.4337	1.621
x2 = 0.1002	1121.5	1.4325	1.6
x2 = 0.2	1118.2	1.4295	1.606
x2 = 0.3	1115.1	1.4265	1.645
x2 = 0.4	1110.9	1.4226	1.706
x2 = 0.5	1105.9	1.4175	1.766
x2 = 0.6	1098.8	1.4116	1.8
x2 = 0.7	1088.6	1.4017	1.787
x2 = 0.8	1073.2	1.3888	1.668
x2 = 0.9	1047.1	1.3684	1.385
x2 = 0.95	1026.6	1.3531	1.16

O=C1CCCO1 [γ-butyrolactone]
Conditions	Normal melting temperature [°C]	mass density [kg/m3]	refractive index	viscosity [mPa·s]
[3]	–	–	1.435	–
[4]	-43.72	1124.5	–	1.654

[4]
Conditions	vapor or sublimation pressure [kPa]
376.99 K	4
400.58 K	10
405.68 K	12
420.76 K	20
433.66 K	30
443.36 K	40
451.22 K	50
457.88 K	60
463.68 K	70
468.84 K	80
473.49 K	90
477.54 K	100

CC(O)CO (centres undefined) [1,2-propanediol]
Conditions	mass density [kg/m3]	refractive index	viscosity [mPa·s]
[3]	–	1.4313	–
[4]	1031.6	–	44.45

[4]
Conditions	vapor or sublimation pressure [kPa]
378 K	4
398.24 K	10
402.54 K	12
415.13 K	20
425.72 K	30
433.59 K	40
439.9 K	50
445.2 K	60
449.79 K	70
453.84 K	80
457.48 K	90
460.79 K	100

CC(O)CO (centres undefined) [1,2-propanediol] + CC1COC(=O)O1
x1 = 1
Conditions	mass density [kg/m3]	refractive index	viscosity [mPa·s]
[1]	–	1.4313	–
[2]	1031.6	–	44.45

CCOC(=O)CCC(=O)OCC [diethyl butanedioate]
Conditions	Normal melting temperature [°C]	mass density [kg/m3]	refractive index	viscosity [mPa·s]
[3]	–	–	1.4179	–
[4]	-21.52	1035.5	–	2.393

[4]
Conditions	vapor or sublimation pressure [kPa]
392.46 K	4
417.39 K	10
423.15 K	12
437.53 K	20
453.15 K	30
462.1 K	40
467.78 K	50

CC1COC(=O)O1 (centres undefined) [4-methyl-1,3-dioxolan-2-one]
Conditions	mass density [kg/m3]	refractive index	viscosity [mPa·s]
[3]	–	1.4198	–
[4]	1199.4	–	2.39

[4]
Conditions	vapor or sublimation pressure [kPa]
407.97 K	4
432.45 K	10
437.77 K	12
453.6 K	20
467.23 K	30
477.53 K	40
485.91 K	50

CCOC(=O)CCC(=O)OCC [diethyl butanedioate] + O=C1CCCO1
Conditions	mass density, [2] [kg/m3]	refractive index, [1]	viscosity, [2] [mPa·s]
x2 = 0	1035.5	1.4179	2.393
x2 = 0.05	1037.5	1.4185	2.381
x2 = 0.1	1040	1.419	2.375
x2 = 0.2	1045.3	1.4201	2.356
x2 = 0.2999	1051.1	1.4213	2.318
x2 = 0.4	1057.8	1.4227	2.284
x2 = 0.5	1065.3	1.4242	2.226
x2 = 0.6	1073.8	1.4259	2.153
x2 = 0.7	1083.5	1.4278	2.073
x2 = 0.8	1094.9	1.4299	1.952
x2 = 0.9	1108.4	1.4323	1.817
x2 = 0.95	1116.2	1.4336	1.745

O=C1CCCO1 [γ-butyrolactone] + CCOC(=O)CCC(=O)OCC
x1 = 1
Conditions	mass density [kg/m3]	refractive index	viscosity [mPa·s]
[1]	–	1.435	–
[2]	1124.5	–	1.654

O [water]
Conditions	Normal melting temperature [°C]
[4]	-0.10

O [water] + O=C1CCCO1
x1 = 1
Conditions	refractive index	viscosity [mPa·s]
[1]	1.3325	–
[2]	–	0.8756
